According to patent US9416115B2, “Fused heterocyclic compounds as ion channel modulators” (Gilead Sciences, Inc., priority 2013, dated 2016):

How the values were obtained:
hNav1.1 (SCN1A) = hNav1.1 (SCN1A) (Homo sapiens, UniProt P35498); assay: Use-dependent inhibition of the CNS Nav1.1 sodium channel; assay type: cell-based; settings: use-dependent block, 25 Hz, pulse 20, read-out: Nav1.1 UDB 25 Hz 10 uM
Procedure, shortened: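 HEK-293 cells stably expressing WT hNav1.1, automated whole-cell patch clamp at 23-25 °C with CsF-based internal and NaCl external solutions, pH 7.35. Compound applied twice, 200 s equilibration; block measured at pulse 20 of a 25 Hz train (0 mV, 20 ms) from −120 mV, as mean % inhibition versus compound-free.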

[1] = target: wild-type human cardiac sodium channel, hNav1.5 (Homo sapiens, UniProt Q14524); assay: Late INa screening assay (QPatch whole cell patch clamp, Tefluthrin-induced late current); assay type: cell-based; settings: 1 uM; HEK293 hNav1.5; percent block of late INa
Sequence of wild-type human cardiac sodium channel, hNav1.5 (Q14524 whole entry): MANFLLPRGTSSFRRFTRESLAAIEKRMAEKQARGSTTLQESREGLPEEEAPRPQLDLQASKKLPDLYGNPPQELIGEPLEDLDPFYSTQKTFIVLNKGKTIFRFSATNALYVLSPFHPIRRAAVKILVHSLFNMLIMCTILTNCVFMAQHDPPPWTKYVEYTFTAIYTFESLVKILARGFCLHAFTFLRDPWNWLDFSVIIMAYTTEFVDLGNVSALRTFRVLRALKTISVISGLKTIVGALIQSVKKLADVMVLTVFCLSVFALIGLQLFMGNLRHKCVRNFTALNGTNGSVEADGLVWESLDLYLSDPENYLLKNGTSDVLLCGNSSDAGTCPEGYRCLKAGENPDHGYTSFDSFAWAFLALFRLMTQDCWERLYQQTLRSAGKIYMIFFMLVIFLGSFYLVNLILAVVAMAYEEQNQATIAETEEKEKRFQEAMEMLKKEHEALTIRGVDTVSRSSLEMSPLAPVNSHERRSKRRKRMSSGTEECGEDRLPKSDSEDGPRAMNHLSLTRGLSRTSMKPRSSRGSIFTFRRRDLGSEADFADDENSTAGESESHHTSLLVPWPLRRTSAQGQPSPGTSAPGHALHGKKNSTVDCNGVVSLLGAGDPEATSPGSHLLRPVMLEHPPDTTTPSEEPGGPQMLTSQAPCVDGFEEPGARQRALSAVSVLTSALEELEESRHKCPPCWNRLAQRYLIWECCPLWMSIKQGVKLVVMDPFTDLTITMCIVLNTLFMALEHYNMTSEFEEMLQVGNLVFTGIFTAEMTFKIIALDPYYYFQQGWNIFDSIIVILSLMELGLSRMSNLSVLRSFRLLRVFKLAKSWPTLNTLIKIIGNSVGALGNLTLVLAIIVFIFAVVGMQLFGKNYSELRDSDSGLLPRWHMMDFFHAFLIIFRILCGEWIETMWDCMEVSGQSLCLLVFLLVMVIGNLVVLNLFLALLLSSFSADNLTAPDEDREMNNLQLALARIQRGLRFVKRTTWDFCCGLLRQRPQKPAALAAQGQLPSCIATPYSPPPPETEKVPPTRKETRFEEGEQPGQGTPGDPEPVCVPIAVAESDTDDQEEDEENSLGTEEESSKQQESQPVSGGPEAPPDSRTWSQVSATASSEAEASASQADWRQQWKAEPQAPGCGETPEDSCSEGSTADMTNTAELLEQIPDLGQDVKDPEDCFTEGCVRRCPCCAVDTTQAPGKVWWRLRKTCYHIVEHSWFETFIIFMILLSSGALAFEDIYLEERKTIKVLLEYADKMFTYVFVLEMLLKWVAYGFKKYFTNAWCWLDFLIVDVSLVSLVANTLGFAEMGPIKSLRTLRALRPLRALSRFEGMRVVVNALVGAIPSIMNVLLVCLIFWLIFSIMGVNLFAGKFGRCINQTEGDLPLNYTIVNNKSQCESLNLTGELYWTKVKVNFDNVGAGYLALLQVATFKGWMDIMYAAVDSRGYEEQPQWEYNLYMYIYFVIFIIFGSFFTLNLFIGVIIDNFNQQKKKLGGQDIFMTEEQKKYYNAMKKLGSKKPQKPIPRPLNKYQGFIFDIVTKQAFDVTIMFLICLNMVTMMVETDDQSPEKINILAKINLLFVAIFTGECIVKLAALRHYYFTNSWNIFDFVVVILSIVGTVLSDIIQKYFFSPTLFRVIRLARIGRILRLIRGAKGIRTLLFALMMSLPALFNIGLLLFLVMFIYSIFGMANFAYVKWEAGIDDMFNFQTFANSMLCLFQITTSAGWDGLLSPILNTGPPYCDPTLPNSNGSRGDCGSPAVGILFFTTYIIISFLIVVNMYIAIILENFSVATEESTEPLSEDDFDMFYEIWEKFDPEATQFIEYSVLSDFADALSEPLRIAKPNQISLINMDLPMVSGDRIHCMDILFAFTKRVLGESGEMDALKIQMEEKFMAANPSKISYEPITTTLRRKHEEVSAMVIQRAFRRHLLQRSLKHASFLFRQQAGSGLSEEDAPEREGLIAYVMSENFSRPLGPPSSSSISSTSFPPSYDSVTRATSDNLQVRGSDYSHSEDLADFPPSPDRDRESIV
Procedure, shortened: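 HEK293 cells stably expressing hNav1.5 without beta subunits were whole-cell patch clamped at 23-25 °C, stepping from −120 to −20 mV for 250 ms at 0.1 Hz. Late current (240–265 ms) was induced with 10 μM Tefluthrin, and compounds were added typically at 0.3 or 1 μM. Percent block was taken against 0 Na baseline with rundown correction.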

Compound | inhibition at 10 µM (hNav1.1 (SCN1A)) [%] | inhibition at 1 µM [1] [%]
Cn1cc(COc2noc3ccc(-c4ccc(OC(F)(F)F)cc4)cc23)nn1 [Example 44] | 21.1 | 48.2
CC1(COc2noc3ccc(-c4ccc(OC(F)(F)F)cc4)cc23)COC1 [Example 92, 3-((3-methyloxetan-3-yl)methoxy)-5-(4-(trifluoromethoxy)phenyl)benzo[d]isoxazole] | < 5 | 36.3
Cc1cccc(COc2noc3ccc(-c4ccc(OC(F)(F)F)cc4)cc23)n1 [Example 95, 3-((6-methylpyridin-2-yl)methoxy)-5-(4-(trifluoromethoxy)phenyl)benzo[d]isoxazole] | < 5 | 51.7
COc1cc(-c2ccc(OC(F)(F)F)c(C)c2)cc2c(OCc3ncccn3)noc12 [Example 23, 7-methoxy-5-(3-methyl-4-(trifluoromethoxy)phenyl)-3-(pyrimidin-2-ylmethoxy)benzo[d]isoxazole] | < 5 | 45.3
Cc1nc(C)n(CCOc2noc3ccc(-c4ccc(OC(F)(F)F)cc4)cc23)n1 [Example 76, 3-(2-(3,5-dimethyl-1H-1,2,4-triazol-1-yl)ethoxy)-5-(4-(trifluoromethoxy)phenyl)benzo[d]isoxazole] | 27.2 | 55.2
O=C1CC[C@H](COc2noc3ccc(-c4ccc(OC(F)(F)F)cc4)cc23)N1 [Example 61, (R)-5-(((5-(4-(trifluoromethoxy)phenyl)benzo[d]isoxazol-3-yl)oxy)methyl)pyrrolidin-2-one] | 28.7 | 38.2
CCn1cncc1COc1noc2ccc(-c3ccc(OC(F)(F)F)cc3)cc12 [Example 49, 3-((1-ethyl-1H-imidazol-5-yl)methoxy)-5-(4-(trifluoromethoxy)phenyl)benzo[d]isoxazole] | 56.4 | 39.6
Cn1cncc1COc1noc2ccc(-c3ccc(OC(F)(F)F)cc3)cc12 [Example 50, 3-((1-methyl-1H-imidazol-5-yl)methoxy)-5-(4-(trifluoromethoxy)phenyl)benzo[d]isoxazole] | 49.2 | 32.5
Cc1cc2onc(OCc3ncccn3)c2cc1-c1ccc(OC(F)(F)F)cc1 [Example 26, 6-methyl-3-(pyrimidin-2-ylmethoxy)-5-(4-(trifluoromethoxy)phenyl)benzo[d]isoxazole] | 58.6 | 49.6
FC(F)(F)Oc1ccc(-c2ccc3onc(OCCn4cnnc4)c3c2)cc1 [Example 63, 3-(2-(4H-1,2,4-triazol-4-yl)ethoxy)-5-(4-(trifluoromethoxy)phenyl)benzo[d]isoxazole] | 77.6 | 44.1
Fc1cc(-c2ccc(OC(F)(F)F)cc2)cc2c(OCc3ncccn3)noc12 [Example 17, 7-fluoro-3-(pyrimidin-2-ylmethoxy)-5-(4-(trifluoromethoxy)phenyl)benzo[d]isoxazole] | 5.9 | 45.9
Fc1cc(C(F)(F)F)ccc1-c1cc2c(OCc3ncccn3)noc2cc1F [Example 33, 6-fluoro-5-(2-fluoro-4-(trifluoromethyl)phenyl)-3-(pyrimidin-2-ylmethoxy)benzo[d]isoxazole] | < 5 | 35.5
COc1ccnc(COc2noc3ccc(-c4ccc(OC(F)(F)F)cc4)cc23)c1 [Example 81, 3-((4-methoxypyridin-2-yl)methoxy)-5-(4-(trifluoromethoxy)phenyl)benzo[d]isoxazole] | < 5 | 33.7
FC(F)(F)Oc1ccc(-c2ccc3onc(OCc4cn[nH]c4)c3c2)cc1 [Example 45, 3-((1H-pyrazol-4-yl)methoxy)-5-(4-(trifluoromethoxy)phenyl)benzo[d]isoxazole] | 63.8 | 43.6
O=C1CCCN1CCOc1noc2c(F)cc(-c3ccc(OC(F)(F)F)cc3)cc12 [Example 80, 1-(2-((7-fluoro-5-(4-(trifluoromethoxy)phenyl)benzo[d]isoxazol-3-yl)oxy)ethyl)pyrrolidin-2-one] | 19.8 | 35.6
FC(F)(F)Oc1ccc(-c2ccc3onc(OCc4nccn4-c4ccccc4)c3c2)cc1 [Example 64, 3-((1-phenyl-1H-imidazol-2-yl)methoxy)-5-(4-(trifluoromethoxy)phenyl)benzo[d]isoxazole] | 33.2 | 30.7
Cc1cc(-c2ccc(OC(F)(F)F)cc2)cc2c(OCCn3cncn3)noc12 [Example 89, 3-(2-(1H-1,2,4-triazol-1-yl)ethoxy)-7-methyl-5-(4-(trifluoromethoxy)phenyl)benzo[d]isoxazole] | 16.1 | 33.2

Compound | inhibition at 10 µM (hNav1.1 (SCN1A)) [%] | inhibition at 1 µM [1] [%]
FC1(F)Oc2ccc(-c3ccc4onc(OCc5ncccn5)c4c3)cc2O1 [Example 30, 5-(2,2-difluorobenzo[d][1,3]dioxol-5-yl)-3-(pyrimidin-2-ylmethoxy)benzo[d]isoxazole] | < 5 | 42.5
Cc1cccnc1COc1noc2ccc(-c3ccc(OC(F)(F)F)cc3)cc12 [Example 93, 3-((3-methylpyridin-2-yl)methoxy)-5-(4-(trifluoromethoxy)phenyl)benzo[d]isoxazole] | < 5 | 45.1
Cc1cc(OC(F)(F)F)ccc1-c1cc2c(OCc3ncccn3)noc2cc1C [Example 29, 6-methyl-5-(2-methyl-4-(trifluoromethoxy)phenyl)-3-(pyrimidin-2-ylmethoxy)benzo[d]isoxazole] | < 5 | 46.4
CC(COc1noc2ccc(-c3ccc(OC(F)(F)F)cc3)cc12)n1cncn1 (centres unmarked) [Example 77, 3-(2-(1H-1,2,4-triazol-1-yl)propoxy)-5-(4-(trifluoromethoxy)phenyl)benzo[d]isoxazole] | 49.2 | 49.2
Fc1cc2onc(OCc3ncccn3)c2cc1-c1ccc2c(c1)OC(F)(F)O2 [Example 35, 5-(2,2-difluorobenzo[d][1,3]dioxol-5-yl)-6-fluoro-3-(pyrimidin-2-ylmethoxy)benzo[d]isoxazole] | < 5 | 33.6
Cc1nc(C)n(C(C)COc2noc3ccc(-c4ccc(OC(F)(F)F)cc4)cc23)n1 (centres unmarked) [Example 79, 3-(2-(3,5-dimethyl-1H-1,2,4-triazol-1-yl)propoxy)-5-(4-(trifluoromethoxy)phenyl)benzo[d]isoxazole] | 36.8 | 46.1
CC(Oc1noc2ccc(-c3ccc(OC(F)(F)F)cc3)cc12)c1ccccn1 (centres unmarked) [Example 98, 3-(1-(pyridin-2-yl)ethoxy)-5-(4-(trifluoromethoxy)phenyl)benzo[d]isoxazole] | 15.9 | 38.7
Cc1cc(-c2cc(C)c3onc(OCc4ncccn4)c3c2)ccc1OC(F)(F)F [Example 18, 7-methyl-5-(3-methyl-4-(trifluoromethoxy)phenyl)-3-(pyrimidin-2-ylmethoxy)benzo[d]isoxazole] | < 5 | 38.2
FC(F)(F)COc1ccc(-c2ccc3onc(OCc4ncccn4)c3c2)cn1 [Example 21, 3-(pyrimidin-2-ylmethoxy)-5-(6-(2,2,2-trifluoroethoxy)pyridin-3-yl)benzo[d]isoxazole] | < 5 | 48.8
CC(C)n1ccnc1COc1noc2ccc(-c3ccc(OC(F)(F)F)cc3)cc12 [Example 48, 3-((1-isopropyl-1H-imidazol-2-yl)methoxy)-5-(4-(trifluoromethoxy)phenyl)benzo[d]isoxazole] | 52.8 | 51.2
COc1cc(-c2ccc(C(F)(F)F)cc2F)cc2c(OCc3ncccn3)noc12 [Example 24, 5-(2-fluoro-4-(trifluoromethyl)phenyl)-7-methoxy-3-(pyrimidin-2-ylmethoxy)benzo[d]isoxazole] | < 5 | 36
OCC1(COc2noc3ccc(-c4ccc(OC(F)(F)F)cc4)cc23)COC1 [Example 97, (3-(((5-(4-(trifluoromethoxy)phenyl)benzo[d]isoxazol-3-yl)oxy)methyl)oxetan-3-yl)methanol] | 46.3 | 39
Cc1cc(-c2cc3c(OCc4ncccn4)noc3cc2C)ccc1OC(F)(F)F [Example 27, 6-methyl-5-(3-methyl-4-(trifluoromethoxy)phenyl)-3-(pyrimidin-2-ylmethoxy)benzo[d]isoxazole] | < 5 | 35.1
Fc1cc2onc(OCc3ncccn3)c2cc1-c1ccc(OC(F)(F)F)cc1 [Example 31, 6-fluoro-3-(pyrimidin-2-ylmethoxy)-5-(4-(trifluoromethoxy)phenyl)benzo[d]isoxazole] | < 5 | 43.9
Cc1cc(-c2ccc(OC(F)(F)F)cc2)cc2c(OCc3ncco3)noc12 [Example 91, 7-methyl-3-(oxazol-2-ylmethoxy)-5-(4-(trifluoromethoxy)phenyl)benzo[d]isoxazole] | 31.1 | 53
COc1cc(-c2ccc(OC(F)(F)F)cc2C)cc2c(OCc3ncccn3)noc12 [Example 25, 7-methoxy-5-(2-methyl-4-(trifluoromethoxy)phenyl)-3-(pyrimidin-2-ylmethoxy)benzo[d]isoxazole] | < 5 | 41.3
FC(F)(F)Oc1ccc(-c2ccc3onc(OCCN4CCOCC4)c3c2)cc1 [Example 78, 3-(2-morpholinoethoxy)-5-(4-(trifluoromethoxy)phenyl)benzo[d]isoxazole] | 39.9 | 47.1
